ChEMBL document CHEMBL1275492, “In vitro activity of ceftobiprole against pathogens from two phase 3 clinical trials of complicated skin and skin structure infections” (2008)
≈ marks a conversion by molar mass, not a printed value.

How the values were obtained:
Assay type in all cases: functional
[1] = tested on: Staphylococcus intermedius; experiment: Antibacterial activity against Staphylococcus intermedius obtained from complicated skin and skin structure infections by agar dilution method
[2] = tested on: Staphylococcus lugdunensis; experiment: Antibacterial activity against methicillin-resistant, oxacillin-susceptible, coagulase-negative, mecA-positive Staphylococcus lugdunensis obtained from complicated skin and skin structure infections by agar dilution method
[3] = tested on: Bacillus; experiment: Antibacterial activity against Bacillus spp. obtained from complicated skin and skin structure infections by agar dilution method
[4] = tested on: Staphylococcus lugdunensis; experiment: Antibacterial activity against coagulase-negative Staphylococcus lugdunensis obtained from complicated skin and skin structure infections by agar dilution method
[5] = tested on: Gemella; experiment: Antibacterial activity against Gemella spp. obtained from complicated skin and skin structure infections by agar dilution method
[6] = tested on: Staphylococcus aureus; experiment: Antibacterial activity against methicillin susceptible Staphylococcus aureus obtained from complicated skin and skin structure infections by agar dilution method
[7] = tested on: Micrococcus; experiment: Antibacterial activity against Micrococcus spp. obtained from complicated skin and skin structure infections by agar dilution method
[8] = Antibacterial activity against Streptococcus sp. 'group C' obtained from complicated skin and skin structure infections by agar dilution method
[9] = tested on: Streptococcus pyogenes; experiment: Antibacterial activity against Streptococcus pyogenes obtained from complicated skin and skin structure infections by agar dilution method
[10] = tested on: Lactococcus lactis; experiment: Antibacterial activity against Lactococcus lactis obtained from complicated skin and skin structure infections by agar dilution method
[11] = tested on: Staphylococcus cohnii; experiment: Antibacterial activity against coagulase-negative Staphylococcus cohnii obtained from complicated skin and skin structure infections by agar dilution method
[12] = tested on: Staphylococcus hominis; experiment: Antibacterial activity against coagulase-negative Staphylococcus hominis obtained from complicated skin and skin structure infections by agar dilution method
[13] = tested on: Staphylococcus epidermidis; experiment: Antibacterial activity against coagulase-negative Staphylococcus epidermidis obtained from complicated skin and skin structure infections by agar dilution method
[14] = tested on: Staphylococcus saprophyticus; experiment: Antibacterial activity against coagulase-negative Staphylococcus saprophyticus obtained from complicated skin and skin structure infections by agar dilution method
[15] = tested on: Streptococcus agalactiae; experiment: Antibacterial activity against Streptococcus agalactiae obtained from complicated skin and skin structure infections by agar dilution method
[16] = tested on: Staphylococcus capitis; experiment: Antibacterial activity against coagulase-negative Staphylococcus capitis obtained from complicated skin and skin structure infections by agar dilution method
[17] = tested on: Staphylococcus aureus; experiment: Antibacterial activity against Staphylococcus aureus obtained from complicated skin and skin structure infections by agar dilution method
[18] = tested on: Enterococcus faecium; experiment: Antibacterial activity against Enterococcus faecium obtained from complicated skin and skin structure infections by agar dilution method
[19] = tested on: Streptococcus mitis; experiment: Antibacterial activity against Streptococcus mitis obtained from complicated skin and skin structure infections by agar dilution method
[20] = tested on: Staphylococcus aureus; experiment: Antibacterial activity against methicillin resistant Staphylococcus aureus obtained from complicated skin and skin structure infections by agar dilution method
[21] = tested on: Gemella morbillorum; experiment: Antibacterial activity against Gemella morbillorum obtained from complicated skin and skin structure infections […]
[22] = tested on: Streptococcus constellatus; experiment: Antibacterial activity against Streptococcus constellatus obtained from complicated skin and skin structure infections by agar dilution method
[23] = tested on: Enterococcus faecalis; experiment: Antibacterial activity against Enterococcus faecalis obtained from complicated skin and skin structure infections by agar dilution method
[24] = tested on: Staphylococcus; experiment: Antibacterial activity against methicillin-susceptible, coagulase-negative Staphylococcus obtained from complicated skin and skin structure infections by agar dilution method
[25] = tested on: Staphylococcus warneri; experiment: Antibacterial activity against coagulase-negative Staphylococcus warneri obtained from complicated skin and skin structure infections by agar dilution method
[26] = Antibacterial activity against Streptococcus sp. 'group G' obtained from complicated skin and skin structure infections by agar dilution method
[27] = tested on: Staphylococcus haemolyticus; experiment: Antibacterial activity against coagulase-negative Staphylococcus haemolyticus obtained from complicated skin and skin structure infections by agar dilution method
[28] = tested on: Mammaliicoccus sciuri; experiment: Antibacterial activity against coagulase-negative Staphylococcus sciuri obtained from complicated skin and skin structure infections by agar dilution method
[29] = tested on: Aerococcus viridans; experiment: Antibacterial activity against Aerococcus viridans obtained from complicated skin and skin structure infections by agar dilution method

## CC[C@H]1OC(=O)[C@H](C)[C@@H](O[C@H]2C[C@@](C)(OC)[C@@H](O)[C@H](C)O2)[C@H](C)[C@@H](O[C@@H]2O[C@H](C)C[C@H](N(C)C)[C@H]2O)[C@](C)(O)C[C@@H](C)C(=O)[C@H](C)[C@@H](O)[C@]1(C)O [ERYTHROMYCIN]
[1]
  MIC: ≤ 0.06 µg/mL
  MIC50: ≤ 0.06 µg/mL
  MIC90: 0.06 µg/mL (≈ 0.0818 µM)
[2]
  MIC50: > 8 µg/mL
[3]
  MIC50: 0.03 µg/mL (≈ 0.0409 µM)
  MIC90: 8 µg/mL (≈ 10.9 µM)
[4]
  MIC50: 0.25 µg/mL (≈ 0.341 µM)
  MIC90: > 16 µg/mL
[5]
  MIC50: 0.03 µg/mL (≈ 0.0409 µM)
  MIC90: 8 µg/mL (≈ 10.9 µM)
[6]
  MIC50: 0.25 µg/mL (≈ 0.341 µM)
  MIC90: > 8 µg/mL
[7]
  MIC50: 0.03 µg/mL (≈ 0.0409 µM)
  MIC90: 8 µg/mL (≈ 10.9 µM)
[8]
  MIC50: 0.03 µg/mL (≈ 0.0409 µM)
  MIC90: 0.12 µg/mL (≈ 0.164 µM)
[9]
  MIC50: 0.06 µg/mL (≈ 0.0818 µM)
  MIC90: 0.06 µg/mL (≈ 0.0818 µM)
[10]
  MIC50: 0.03 µg/mL (≈ 0.0409 µM)
  MIC90: 8 µg/mL (≈ 10.9 µM)
[11]
  MIC50: 0.25 µg/mL (≈ 0.341 µM)
  MIC90: > 16 µg/mL
[12]
  MIC50: 0.25 µg/mL (≈ 0.341 µM)
  MIC90: > 16 µg/mL
[13]
  MIC50: 0.25 µg/mL (≈ 0.341 µM)
  MIC90: > 16 µg/mL
[14]
  MIC50: 0.25 µg/mL (≈ 0.341 µM)
  MIC90: > 16 µg/mL
[15]
  MIC50: 0.06 µg/mL (≈ 0.0818 µM)
  MIC90: > 16 µg/mL
[16]
  MIC50: 0.25 µg/mL (≈ 0.341 µM)
  MIC90: > 16 µg/mL
[17]
  MIC50: 0.25 µg/mL (≈ 0.341 µM)
  MIC90: > 16 µg/mL
[18]
  MIC50: 2 µg/mL (≈ 2.73 µM)
[19]
  MIC: ≤ 0.06 µg/mL
  MIC50: ≤ 0.06 µg/mL
  MIC90: 0.06 µg/mL (≈ 0.0818 µM)
[20]
  MIC50: > 8 µg/mL
[21]
  MIC50: 0.03 µg/mL (≈ 0.0409 µM)
  MIC90: 8 µg/mL (≈ 10.9 µM)
[22]
  MIC50: ≤ 0.06 µg/mL
  MIC90: 0.06 µg/mL (≈ 0.0818 µM)
[23]
  MIC50: > 8 µg/mL
  MIC90: > 16 µg/mL
[24]
  MIC50: 0.25 µg/mL (≈ 0.341 µM)
  MIC90: > 8 µg/mL
[25]
  MIC50: 0.25 µg/mL (≈ 0.341 µM)
  MIC90: > 16 µg/mL
[26]
  MIC50: 0.06 µg/mL (≈ 0.0818 µM)
  MIC90: 1 µg/mL (≈ 1.36 µM)
[27]
  MIC50: 0.25 µg/mL (≈ 0.341 µM)
  MIC90: > 16 µg/mL
[28]
  MIC50: 0.25 µg/mL (≈ 0.341 µM)
  MIC90: > 16 µg/mL
[29]
  MIC50: 0.03 µg/mL (≈ 0.0409 µM)
  MIC90: 8 µg/mL (≈ 10.9 µM)

## CC1(C)S[C@@H]2[C@H](NC(=O)Cc3ccccc3)C(=O)N2[C@H]1C(=O)O [PENICILLIN G]
[1]
  MIC50: 0.5 µg/mL (≈ 1.5 µM)
  MIC90: 0.5 µg/mL (≈ 1.5 µM)
[3]
  MIC50: ≤ 0.03 µg/mL
  MIC90: 1 µg/mL (≈ 2.99 µM)
[5]
  MIC50: ≤ 0.03 µg/mL
  MIC90: 1 µg/mL (≈ 2.99 µM)
[7]
  MIC50: ≤ 0.03 µg/mL
  MIC90: 1 µg/mL (≈ 2.99 µM)
[8]
  MIC: ≤ 0.03 µg/mL
  MIC50: ≤ 0.03 µg/mL
  MIC90: 0.06 µg/mL (≈ 0.179 µM)
[9]
  MIC: ≤ 0.03 µg/mL
  MIC50: ≤ 0.03 µg/mL
  MIC90: ≤ 0.03 µg/mL
[10]
  MIC50: ≤ 0.03 µg/mL
  MIC90: 1 µg/mL (≈ 2.99 µM)
[15]
  MIC50: 0.06 µg/mL (≈ 0.179 µM)
  MIC90: 0.06 µg/mL (≈ 0.179 µM)
[18]
  MIC: > 4 µg/mL
  MIC50: > 4 µg/mL
[19]
  MIC50: 0.5 µg/mL (≈ 1.5 µM)
  MIC90: 0.5 µg/mL (≈ 1.5 µM)
[21]
  MIC50: ≤ 0.03 µg/mL
  MIC90: 1 µg/mL (≈ 2.99 µM)
[22]
  MIC: ≤ 0.03 µg/mL
  MIC50: ≤ 0.03 µg/mL
  MIC90: 0.12 µg/mL (≈ 0.359 µM)
[23]
  MIC: 2 µg/mL (≈ 5.98 µM)
  MIC50: 2 µg/mL (≈ 5.98 µM)
  MIC90: 4 µg/mL (≈ 12 µM)
[26]
  MIC: ≤ 0.03 µg/mL
  MIC50: ≤ 0.03 µg/mL
  MIC90: ≤ 0.03 µg/mL
[29]
  MIC50: ≤ 0.03 µg/mL
  MIC90: 1 µg/mL (≈ 2.99 µM)
